Source: patent US9365502B2, “Neuroactive substituted cyclopenta[b]phenanthrenes as modulators for GABA type-A receptors” (priority 2013, dated 2016)

Row | melting point [°C] | SMILES
1 | 175 to 177 | C[C@]12C[C@H]3CC[C@H]4C[C@@H](O)CC[C@H]4[C@@H]3C[C@@H]1CCC2=O
2 | 138 to 140 | C[C@@]12CC[C@H](O)C[C@H]1CC[C@@H]1C[C@@]3(C)[C@@H](CC[C@@]34CO4)C[C@H]12
3 | 145 to 147 | C[C@]12C[C@H]3CC[C@@H]4C[C@@H](O)CC[C@@]4(C)[C@@H]3C[C@@H]1CC[C@@H]2C#N
4 | 165 to 167 | C[C@@]12C[C@@H]3CC[C@H]4C[C@H](O)CC[C@@H]4[C@H]3C[C@H]1CC[C@]21CO1
5 | 163 to 165 | C[C@@]12C[C@@H]3CC[C@H]4C[C@H](O)CC[C@@H]4[C@H]3C[C@H]1CC[C@H]2C#N
6 | 128 to 130 | CC(=O)[C@@H]1CC[C@@H]2C[C@H]3[C@@H](CC[C@H]4C[C@H](O)CC[C@@H]43)C[C@]21C
7 | 170 to 172 | C[C@@]12CC[C@H](O)C[C@H]1CC[C@@H]1C[C@]3(C)C(C#N)=CC[C@H]3C[C@H]12 (stereo in doubt)
8 | 174 to 176 | C[C@@]12C[C@@H]3CC[C@@H]4C[C@H](O)CC[C@@H]4[C@H]3C[C@H]1CCC2=O (stereo in doubt)
